According to publication PMC6470738, “Characterization of the High-Affinity Drug Ligand Binding Site of Mouse Recombinant TSPO” (International Journal of Molecular Sciences, 2019):
Several values for one entry are separate records, joined by “and”; a condition that tells them apart may be missing. Equal values may be shown once. Entries after “also recorded” stand apart in the source; their conditions may differ. Read-outs that look alike come from different tables or passages of the source.

Experiments:
[1] = tested on: TSPO A147T (polymorphism rs6971); conditions: human polymorphism rs6971; cited from earlier work
[2] = target: TSPO ∆158-159; design: method as in Farges et al. (1994); conditions: yeast mitochondria, ref Farges et al. (1994), read-out: PK 11195 Kd; cited from earlier work
[3] = tested on: human TSPO ∆15-35; conditions: cited from earlier work
[4] = tested on: mammalian TSPO ∆41-51; design: method as in Li et al. (1998); conditions: bacterial protoplast, control = wild type, ref Li et al. (1998); cited from earlier work
[5] = tested on: TSPO V26T; design: method as in PMID 7808437; conditions: cited from earlier work
[6] = tested on: mammalian TSPO ∆108-119; design: method as in Li et al. (1998); conditions: bacterial protoplast, control = wild type, ref Li et al. (1998); cited from earlier work
[7] = target: TSPO Wild-type; design: method as in Farges et al. (1994); conditions: yeast mitochondria, ref Farges et al. (1994), read-out: PK 11195 Kd; cited from earlier work
[8] = tested on: mammalian TSPO ∆120-133; design: method as in Li et al. (1998); conditions: bacterial protoplast, control = wild type, ref Li et al. (1998); cited from earlier work
[9] = target: T1, rec-mTSPO Y34F/F100A (Mus musculus, UniProt P50637, F100A/Y34F); test: [3H]-PK 11195 saturation binding to rec-mTSPO reconstituted in proteoliposomes
T1 construct: His tag; made in house; host or cells: E. coli
Description: (§1) Mutations were performed using the QuikChange Site-Directed Mutagenesis kit (Stratagene, France) according to published protocols. In brief, miniprep pET-PBR plasmid double-strand DNA was used as a template. Synthetic oligonucleotide primer pairs containing a point mutation or deletion, each complementary to the opposing strand of the vector, were extended during temperature cycling by pfu DNA polymerase. The nicked vector DNAs containing the desired mutations were then transfected into E. coli.
(§2) SDS-solubilized mTSPO was reincorporated in proteoliposomes by mixing with SDS solubilized lipids (dimyristoyl phosphatidyl choline/dimyristoyl phosphatidyl ethanolamine, 9:1) at a lipid to protein ratio of 5 (w/w). The detergent was removed using Bio-Beads SM2 according to published protocols. Reconstitution was followed by combining the fluorescence and optical changes as previously described.
(§3) Proteoliposomes containing recombinant mTSPO were incubated with various concentrations of [^3H]-PK 11195 (SA, 83.5 Ci/mmol, Perkin Elmer SAS, Courtaboeuf, France) in phosphate buffer saline (PBS). The bound ligand was quantified by liquid scintillation spectrometry after filtration on Whatman Filters GF/C (Sigma-Aldrich, Saint Quentin Fallavier, France) according to published protocols. The Kd and Bmax values were determined by fitting the saturation curves with the following equation Ligand bound = (Bmax × Ligand)/(Kd + Ligand).

[10] = target: T2, rec-mTSPO F100A (Mus musculus, UniProt P50637, F100A); test: as above
T2 construct: His tag; made in house; host or cells: E. coli
Description: as §1, §2, §3

[11] = target: T3, rec-mTSPO ΔC-ter (153–169) (Mus musculus, UniProt P50637); test: as above
T3 construct: His tag; made in house; host or cells: E. coli
Description: as §1, §2, §3

[12] = target: T4, rec-mTSPO Y34F/F99A (Mus musculus, UniProt P50637, F99A/Y34F); test: as above
T4 construct: His tag; made in house; host or cells: E. coli
Description: as §1, §2, §3

[13] = target: T5, rec-mTSPO Y34F (Mus musculus, UniProt P50637, Y34F); test: as above
T5 construct: His tag; made in house; host or cells: E. coli
Description: as §1, §2, §3

[14] = target: T6, rec-mTSPO Y34S (Mus musculus, UniProt P50637, Y34S); test: as above
T6 construct: His tag; made in house; host or cells: E. coli
Description: as §1, §2, §3

[15] = target: T7, rec-mTSPO Δ41–51 (Mus musculus, UniProt P50637, DEL41-51); test: as above; conditions: Δ41–50 as printed in Table 1
T7 construct: His tag; made in house; host or cells: E. coli
Description: as §1, §2, §3

[16] = target: TSPO ∆157-169; design: method as in Farges et al. (1994); conditions: yeast mitochondria, ref Farges et al. (1994), read-out: PK 11195 Kd; cited from earlier work
[17] = target: TSPO ∆2-20,158-169; design: method as in Farges et al. (1994); conditions: yeast mitochondria, ref Farges et al. (1994), read-out: PK 11195 Kd; cited from earlier work
[18] = tested on: TSPO W42 mutation; design: method as in PMID 7808437; conditions: cited from earlier work
[19] = tested on: WT and mutants of TSPO reconstituted in liposomes; test: [3H]-PK 11195 saturation binding to rec-mTSPO reconstituted in proteoliposomes, all constructs; design: species or system mouse; conditions: all stoichiometries obtained
Description: as §2, §3

[20] = target: T8, rec-mTSPO (Mus musculus, UniProt P50637); test: Limited trypsin digestion of rec-mTSPO solubilized in DPC; conditions: DPC 0.1%, 30 °C, TSPO:trypsin 30:1; 100 µM PK 11195 and increasing concentrations
T8 construct: His tag; made in house; host or cells: E. coli BL21 DE3
Description: Proteolysis was performed by mixing rec-mTSPO (0.2 mg/mL) solubilized in DPC (0.1%) and a phosphate buffer (10 mM at pH 7.0) with protease at a TSPO:Trypsin ratio of 30:1 (w/w).

[21] = target: T8, rec-mTSPO; conditions: cited from earlier work
[22] = target: TSPO ∆156-169; design: method as in Farges et al. (1994); conditions: yeast mitochondria, ref Farges et al. (1994), read-out: PK 11195 Kd; cited from earlier work
[23] = target: TSPO ∆2-20; design: method as in Farges et al. (1994); conditions: yeast mitochondria, ref Farges et al. (1994), read-out: PK 11195 Kd; cited from earlier work
[24] = target: T8, rec-mTSPO; test: Circular dichroism of rec-mTSPO in DPC with PK 11195; conditions: increasing amounts of PK 11195, high ligand over protein molar ratios
Description: Far UV circular dichroism spectra were recorded on a Jobin-Yvon CD6 spectropolarimeter operated at room temperature according to published protocols [19, 25, 45]. Briefly, a detergent solubilized mTSPO sample (5 µM) in a 10 mM sodium phosphate buffer solution was placed in a 0.2 mm path length quartz cuvette (Hellma, Paris, France). The CD spectra were recorded in the 185 to 270 nm wavelength range with a 0.2 nm step resolution, 1 s signal averaging time and 1 nm bandwidth. The spectra were averaged over five scans, corrected for background and smoothed over 25 points. A consensus secondary structure content was estimated by spectral deconvolution using CONTINLL, CDSSTR and Selcon software and datasets of reference proteins SMP50 (37 soluble proteins and 13 membrane proteins) and SP37 (37 soluble proteins) [46], as well as CDFriend.

[25] = tested on: mammalian TSPO ∆141-152; design: method as in Li et al. (1998); conditions: bacterial protoplast, control = wild type, ref Li et al. (1998); cited from earlier work
[26] = target: T9, rec-mTSPO WT (Mus musculus, UniProt P50637); test: [3H]-PK 11195 saturation binding to rec-mTSPO reconstituted in proteoliposomes
T9 construct: His tag; made in house; host or cells: E. coli BL21 DE3
Description: as §2, §3

[27] = tested on: TSPO R32G; design: method as in PMID 7808437; conditions: cited from earlier work
[28] = tested on: TSPO2; design: method as in PMID 19729679; conditions: paralogous TSPO2; cited from earlier work
[29] = tested on: TSPO K39G; design: method as in PMID 7808437; conditions: cited from earlier work
[30] = tested on: mammalian TSPO ∆5-20; design: method as in Li et al. (1998); conditions: bacterial protoplast, control = wild type, ref Li et al. (1998); cited from earlier work
[31] = tested on: TSPO W47 mutation; design: method as in PMID 7808437; conditions: cited from earlier work
[32] = tested on: TSPO R103A; design: method as in PMID 7808437; conditions: cited from earlier work
[33] = tested on: mammalian TSPO ∆153-169; design: method as in Li et al. (1998); conditions: bacterial protoplast, control = wild type, ref Li et al. (1998); cited from earlier work

COc1ccccc1CN(C(C)=O)c1cnccc1Oc1ccccc1 [PBR28]
decrease of the affinity due to A147T polymorphism [1]: one or two orders of magnitude

CCC(C)N(C)C(=O)c1cc2ccccc2c(-c2ccccc2Cl)n1 (centres unmarked) [PK 11195, N-butan-2-yl-1-(2-chlorophenyl)-N-methylisoquinoline-3-carboxamide]
Kd [2]: 10 ± 6 nM | effect of deletion on PK 11195 binding ([3]; Δ15–35 of human TSPO overexpressed in yeast): complete loss of PK 11195 binding; also recorded: loses its binding capacity | Kd ([3]; ∆15-35, yeast mitochondria, ref Farges et al. (1994), read-out: PK 11195 Kd): > 200 nM | PK 11195 binding % of control [4]: ~ 55 % of control and 55 % of control | effect of mutation on PK 11195 binding [5]: complete loss of PK 11195 binding | PK 11195 binding % of control [6]: ~ 70 % of control | Kd [7]: 6 ± 3 nM | PK 11195 binding % of control [8]: ~ 55 % of control | decrease in affinity for PK 11195 compared with WT ([9]; Y34F/F100A vs WT): 20 fold | Bmax ([9]; Y34F/F100A, proteoliposomes): 25 ± 10 nmol/mg | Kd ([9]; Y34F/F100A, proteoliposomes): 150 ± 20 nM | Bmax [10]: 25 ± 7 nmol/mg | Kd [10]: 20 ± 5 nM | Bmax [11]: 30 ± 10 nmol/mg | Kd [11]: 20 ± 5 nM | decrease in affinity for PK 11195 compared with WT ([12]; Y34F/F99A vs WT): 20 fold | Bmax ([12]; Y34F/F99A, proteoliposomes): 25 ± 10 nmol/mg | Kd ([12]; Y34F/F99A, proteoliposomes): 150 ± 20 nM | Bmax [13]: 27 ± 3 nmol/mg | Kd [13]: 20 ± 3 nM | Bmax [14]: 25 ± 5 nmol/mg | Kd [14]: 40 ± 7 nM | Bmax [15]: 25 ± 8 nmol/mg | Kd [15]: 20 ± 8 nM | Kd [16]: 9 ± 3 nM | Kd [17]: > 200 nM | effect of mutation on PK 11195 binding [18]: no effect | stoichiometry (Bmax) [19]: 25–30 nmol of PK 11195 bound per mg of recombinant TSPO | effect on proteolytic cleavage of rec-mTSPO by trypsin [20]: protected against cleavage | PK 11195 binding in detergent ([21]; SDS-solubilized rec-mTSPO): no PK 11195 binding | affinity with detergent-solubilized rec-mTSPO ([21]; detergent-solubilized, additional interaction between PK 11195 and detergent): micro-millimolar range | PK 11195 binding in detergent ([21]; rec-mTSPO in the presence of DPC): observed | Kd [22]: 10 ± 4 nM | Kd [23]: 25 ± 8 nM | effect on CD spectrum of rec-mTSPO [24]: increasing changes in the CD spectrum | PK 11195 binding % of control [25]: ~ 75 % of control | effect of A147T polymorphism on affinity [1]: no effect | Kd ([26]; proteoliposomes, fit of saturation curve): 8 ± 3 nM | Bmax ([26]; stoichiometry, nmol PK 11195 bound per mg recombinant TSPO): 25 ± 3 nmol/mg | effect of mutation on PK 11195 binding [27]: no effect | binding to TSPO2 [28]: not binding | effect of mutation on PK 11195 binding [29]: no effect | PK 11195 binding % of control [30]: ~ 70 % of control | effect of mutation on PK 11195 binding [31]: no effect | effect of mutation on PK 11195 binding [32]: no effect | PK 11195 binding % of control [33]: ~ 75 % of control and 75 % of control
